Format in all cases: cell-based, human
One assay relates to cancer cell lines. The experiment in a line: Cell viability analysis (WST-1) on cancer cell lines. Conditions: drug 10 μM, 72 hours, WST-1; Table 3. (Tetrazolium assays rely on reduction of a dye to a coloured formazan, in cell work by metabolically active cells.)
The test system of assay [1] is HI650 (Lung Adenocarcinoma). In words: Cell viability analysis, lung cancer HI650. The note with it: Homo sapiens, NCI-H1650, 72 h.
Assay [2] has as its system A549 (Lung Adenocarcinoma). The experiment in a line: Cell viability analysis, lung cancer A549. Conditions: Homo sapiens, A549, 72 h.
The subject of assay [3] is AGS (Gastric Adenocarcinoma). In words: Cell viability analysis, gastric cancer AGS. The note with it: Homo sapiens, 72 h.
Assay [4] concerns MKN-45 (Gastric Adenocarcinoma). The experiment in a line: Cell viability analysis, gastric cancer MKN-45. The note with it: Homo sapiens, MKN-45, 72 h.
Assay [5] concerns HepG2 (Hepatocellular Carcinoma). In words: Cell viability analysis, hepatic cancer HepG2. The note with it: Homo sapiens, HepG2, 72 h.
For assay [6], the system named is LoVo (Colorectal Adenocarcinoma). In words: Cell viability analysis, colon cancer LoVo. Conditions: Homo sapiens, LoVo, 72 h, read-out: cell viability (survival rate), LoVo, drug 10 μM, 72 hours, WST-1, OD450 nm.
Assay [7] has as its system A375 (Amelanotic Melanoma). In words: Cell viability analysis, skin cancer A375. Conditions: Homo sapiens, A-375, 72 h.
Assay [8] has as its system HeLa (Cervix Adenocarcinoma). The experiment in a line: Cell viability analysis, cervical cancer HeLa. The note with it: Homo sapiens, HeLa, 72 h.
Assay [9] deals with PC3 (p53−) (Prostate Adenocarcinoma). In words: Cell viability analysis, prostate cancer PC3. The note with it: Homo sapiens, 72 h.
Assay [10] deals with TSGH-8301 (Urinary Bladder Carcinoma). The experiment in a line: Cell viability analysis, bladder cancer TSGH-8301. The note with it: Homo sapiens, 72 h.
Assay [11] deals with MCF7 (Mammary Gland, Adenocarcinoma). In words: Cell viability analysis, breast cancer MCF7. The note with it: Homo sapiens, MCF7, 72 h.
Assay [12] relates to HL-60 (Acute Promyelocytic Leukemia). In words: Cell viability analysis, leukemia HL-60. Conditions: Homo sapiens, HL-60, 72 h.
The mark [13] stands for this setting: drug 10 μM, 72 hours, WST-1, OD450 nm, read-out: cell viability (survival rate), H1650.
[14] abbreviates: drug 10 μM, 72 hours, WST-1, OD450 nm, read-out: cell viability (survival rate), A549.
Setting [15] is: drug 10 μM, 72 hours, WST-1, OD450 nm, read-out: cell viability (survival rate), AGS.
The mark [16] stands for this setting: drug 10 μM, 72 hours, WST-1, OD450 nm, read-out: cell viability (survival rate), MKN-45.
Setting [17] is: drug 10 μM, 72 hours, WST-1, OD450 nm, read-out: cell viability (survival rate), HepG2.
[18] abbreviates: drug 10 μM, 72 hours, WST-1, OD450 nm, read-out: cell viability (survival rate), A375.
Setting [19] is: drug 10 μM, 72 hours, WST-1, OD450 nm, read-out: cell viability (survival rate), HeLa.
Setting [20] is: drug 10 μM, 72 hours, WST-1, OD450 nm, read-out: cell viability (survival rate), PC3.
The mark [21] stands for this setting: drug 10 μM, 72 hours, WST-1, OD450 nm, read-out: cell viability (survival rate), TSGH.
Setting [22] is: drug 10 μM, 72 hours, WST-1, OD450 nm, read-out: cell viability (survival rate), MCF7.
Where [23] appears, read: drug 10 μM, 72 hours, WST-1, OD450 nm, read-out: cell viability (survival rate), HL-60.
Setting [24] is: read-out: cell viability (survival rate), H1650, drug 10 μM, 72 hours, WST-1, OD450 nm.
[25] abbreviates: read-out: cell viability (survival rate), A549, drug 10 μM, 72 hours, WST-1, OD450 nm.
The mark [26] stands for this setting: read-out: cell viability (survival rate), AGS, drug 10 μM, 72 hours, WST-1, OD450 nm.
Setting [27] is: read-out: cell viability (survival rate), MKN-45, drug 10 μM, 72 hours, WST-1, OD450 nm.
[28] abbreviates: read-out: cell viability (survival rate), HepG2, drug 10 μM, 72 hours, WST-1, OD450 nm.
Where [29] appears, read: read-out: cell viability (survival rate), A375, drug 10 μM, 72 hours, WST-1, OD450 nm.
Setting [30] is: read-out: cell viability (survival rate), HeLa, drug 10 μM, 72 hours, WST-1, OD450 nm.
[31] abbreviates: read-out: cell viability (survival rate), PC3, drug 10 μM, 72 hours, WST-1, OD450 nm.
[32] abbreviates: read-out: cell viability (survival rate), TSGH, drug 10 μM, 72 hours, WST-1, OD450 nm.
The mark [33] stands for this setting: read-out: cell viability (survival rate), MCF7, drug 10 μM, 72 hours, WST-1, OD450 nm.
[34] abbreviates: read-out: cell viability (survival rate), HL-60, drug 10 μM, 72 hours, WST-1, OD450 nm.

A word on the viability: it is a read-out of living cells in per cent, often relative to untreated cells.

Molecules are shown by their SMILES. Like-named read-outs stand apart in the source and are kept apart here.

For `Cc1c(OCC(F)(F)F)ccnc1C[S+]([O-])c1nc2ccccc2[nH]1` (centres unmarked) [Lansoprazole], in the assay with cancer cell lines, the “inhibition effect on different cancer cell lines” value was “significant inhibition effect”. The viability at 10 µM in assay [1] (setting [13]) turned out to be 45.5%; in assay [2] (setting [14]), 84.5%; in [3] (setting [15]), 71.5%; in assay [4] (setting [16]), 74.5%; in assay [5] (setting [17]), 72.3%; in assay [6], 96.1%. Also, the viability at 10 µM in assay [7] (setting [18]) was 60.6%; in assay [8] (setting [19]), 53.6%; in [9] (setting [20]), 94.2%; in [10] (setting [21]) it was 109%; in assay [11] (setting [22]), 141%; in assay [12] (setting [23]) it was 78.6%.
With `CC(=O)Oc1cc(C(F)(F)F)ccc1C(=O)O` [Triflusal], the “inhibition effect on different cancer cell lines” value in the assay on cancer cell lines is on record as “significant inhibition effect”. In addition, the viability at 10 µM in assay [1] (setting [24]) amounted to 81.3%; in [2] (setting [25]), 112%; in [3] (setting [26]), 93.3%; in assay [4] (setting [27]), 134%; in [5] (setting [28]), 103%; in [6] it was 103%. For the same compound, the viability at 10 µM in assay [7] (setting [29]) worked out at 95.9%; in assay [8] (setting [30]) it was 105%; in assay [9] (setting [31]), 87.5%; in assay [10] (setting [32]), 86.5%; in assay [11] (setting [33]), 97.8%; in [12] (setting [34]) it was 93.3%.
`CC(=O)N[C@H]1[C@H]([C@H](O)[C@H](O)CO)OC(C(=O)O)=C[C@@H]1N=C(N)N` [Zanamivir (Relenza), Zanamivir]: the “inhibition effect on different cancer cell lines” value with cancer cell lines is “significant inhibition effect”. The viability at 10 µM was found to be 62.7% in assay [1] (setting [13]); 93% in assay [2] (setting [14]); 75.1% in [3] (setting [15]); 85.8% in assay [4] (setting [16]); 110% in [5] (setting [17]); 77.3% in assay [6]. The viability at 10 µM was 51.5% in assay [7] (setting [18]); 71.8% in assay [8] (setting [19]); 106% in assay [9] (setting [20]); 88.5% in assay [10] (setting [21]); 69.6% in assay [11] (setting [22]); 146% in [12] (setting [23]).
In the case of `CCOc1ccc2nc3cc(N)ccc3c(N)c2c1` [Ethacridine lactate monohydrate], the “inhibition effect on different cancer cell lines” value in the assay on cancer cell lines was “significant inhibition effect”. Further, the viability at 10 µM in assay [1] (setting [13]) stood at 52.5%; in [2] (setting [14]), 75.1%; in assay [3] (setting [15]), 38.2%; in assay [4] (setting [16]) it was 49.7%; in [5] (setting [17]), 65.5%; in [6], 50.1%. In addition, the viability at 10 µM stood at 40.1% in assay [7] (setting [18]); 39.9% in assay [8] (setting [19]); 64.6% in assay [9] (setting [20]); 46.8% in assay [10] (setting [21]); 68.7% in assay [11] (setting [22]); 44.1% in assay [12] (setting [23]).
On to `CCOC(=O)n1ccn(C)c1=S` [Carbimazole], for which, in the assay on cancer cell lines, the “inhibition effect on different cancer cell lines” value is “significant inhibition effect”. The viability at 10 µM in [1] (setting [24]) was 80.9%; in assay [2] (setting [25]), 73.9%; in assay [3] (setting [26]), 114%; in assay [4] (setting [27]), 131%; in [5] (setting [28]), 97.2%; in assay [6], 75%. The viability at 10 µM in [7] (setting [29]) worked out at 65.1%; in [8] (setting [30]), 90.3%; in assay [9] (setting [31]), 95.6%; in [10] (setting [32]), 117%; in assay [11] (setting [33]), 102%; in assay [12] (setting [34]), 80.1%.

For the origin of these results see US10105357B2, “Indication of antibiotic drugs for preparation of cancer inhibition pharmaceutical composition” (LAUNX BIOMEDICAL CO., LTD., priority 2014, dated 2018).
